Laboratory results from PubChem BioAssay (NCI).
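1) Cells in 96-well plates. 2) Compound, 48 h, 5 concentrations. 3) Linear interpolation between surrounding doses. 4) Unreached endpoint = highest concentration. TGI denotes the concentration required for complete inhibition of growth.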

Key:
Assay in all cases: inhibition of tumour cell growth, NCI panel, 48 h
SW-620 colon = tested on: SW-620 colon
A549 NSCLC = tested on: A549 NSCLC
ACHN renal = tested on: ACHN renal
SNB-75 CNS = tested on: SNB-75 CNS
NCI-H460 lung = tested on: NCI-H460 lung
K-562 leukemia = tested on: K-562 leukemia
SK-MEL-28 melanoma = tested on: SK-MEL-28 melanoma
UO-31 renal = tested on: UO-31 renal
EKVX NSCLC = tested on: EKVX NSCLC
UACC-257 melanoma = tested on: UACC-257 melanoma
NCI-H522 lung = tested on: NCI-H522 lung
SK-OV-3 ovarian = tested on: SK-OV-3 ovarian
SR leukemia = tested on: SR leukemia
786-0 renal = tested on: 786-0 renal
SK-MEL-5 melanoma = tested on: SK-MEL-5 melanoma
A498 renal = tested on: A498 renal

SMILES | TGI (SW-620 colon) | TGI (A549 NSCLC) | TGI (ACHN renal) | TGI (SNB-75 CNS) | TGI (NCI-H460 lung) | TGI (K-562 leukemia) | TGI (SK-MEL-28 melanoma) | TGI (UO-31 renal) | TGI (EKVX NSCLC) | TGI (UACC-257 melanoma) | TGI (NCI-H522 lung) | TGI (SK-OV-3 ovarian) | TGI (SR leukemia) | TGI (786-0 renal) | TGI (SK-MEL-5 melanoma) | TGI (A498 renal)
CCOc1ccc(N(CC(=O)N2CC(=O)Nc3cc(C)c(C)cc32)C(C)=O)cc1 | > 100 µM | > 100 µM | > 100 µM | > 100 µM | > 100 µM | > 100 µM | > 100 µM | > 100 µM | > 100 µM | > 100 µM | > 100 µM | > 100 µM | > 100 µM | > 100 µM | > 100 µM | –
Cc1ccc(S(=O)(=O)C2=Cc3ccccc3C2(O)c2ccccc2)cc1 (configuration not stated) | > 100 µM | > 100 µM | > 100 µM | > 100 µM | 54.6 µM | 76.5 µM | 31.1 µM | – | 76 µM | > 10 µM | 65 µM | 79.2 µM | 92 µM | > 10 µM | 31.2 µM | > 10 µM
O=C(O)c1cnc2c(ccc3[nH]cccc32)c1=O | > 100 µM | > 100 µM | > 100 µM | > 100 µM | > 100 µM | > 100 µM | > 100 µM | > 100 µM | > 100 µM | – | > 100 µM | > 100 µM | > 100 µM | > 100 µM | > 100 µM | > 100 µM
O=C1CCC2(c3ccc(Cl)cc3)Nc3ccccc3N12 (configuration not stated) | > 100 µM | > 100 µM | > 100 µM | > 100 µM | > 100 µM | > 100 µM | > 100 µM | > 100 µM | > 100 µM | > 100 µM | > 100 µM | – | > 100 µM | > 100 µM | – | > 100 µM
CN(C)c1ccc(N=C2N=C(Nc3ccccc3)C(=Nc3ccccc3)S2)cc1 | > 100 µM | > 100 µM | > 100 µM | 81.4 µM | > 100 µM | – | > 100 µM | – | > 100 µM | > 100 µM | > 100 µM | > 100 µM | > 100 µM | > 100 µM | > 100 µM | > 100 µM
CCN(CC)CCCNc1ccc([N+](=O)[O-])c2nc3ccccc3c(N)c12 | 2.04 µM | 2.11 µM | – | 2.42 µM | 1.44 µM | 2.35 µM | > 10 µM | > 10 µM | 2.86 µM | > 10 µM | – | 3.4 µM | 4.56 µM | 1.72 µM | 1.53 µM | 9.95 µM
COc1c(Sc2c(SCSc3cnc4ccccc4c3Sc3cnc4ccccc4c3OC)cnc3ccccc23)cnc2ccccc12 | > 100 µM | > 100 µM | > 100 µM | > 100 µM | > 100 µM | – | > 100 µM | > 100 µM | > 100 µM | > 100 µM | > 100 µM | – | 56.7 µM | > 100 µM | > 100 µM | –
CCCCCCCCCCC/C=C(/C(=O)CCCO[Si](C)(C)C(C)(C)C)C(=O)OC | > 100 µM | – | > 100 µM | > 100 µM | > 100 µM | > 100 µM | > 100 µM | > 100 µM | > 100 µM | > 100 µM | > 100 µM | > 100 µM | > 100 µM | > 100 µM | > 100 µM | > 100 µM
O=C1C(Cl)C(c2ccccc2Cl)N1n1cnc2ccccc2c1=O (configuration not stated) | > 100 µM | > 100 µM | > 100 µM | 59.4 µM | > 100 µM | > 100 µM | > 100 µM | 73.2 µM | > 100 µM | > 100 µM | 85.2 µM | 72.5 µM | > 100 µM | > 100 µM | > 100 µM | –
Cc1n[nH]c(=O)n1C1CC1 | > 100 µM | > 100 µM | > 100 µM | > 100 µM | > 100 µM | > 100 µM | > 100 µM | > 100 µM | > 100 µM | > 100 µM | > 100 µM | > 100 µM | > 100 µM | > 100 µM | > 100 µM | –
CCC1C(NC(=O)OC)C(=O)N1[C@@H](C)c1ccccc1 (some centres not stated) | > 100 µM | – | > 100 µM | > 100 µM | > 100 µM | > 100 µM | > 100 µM | > 100 µM | > 100 µM | > 100 µM | > 100 µM | > 100 µM | > 100 µM | > 100 µM | > 100 µM | > 100 µM
Fc1cc2nc3n(c2cc1F)C(c1c(F)cccc1F)SC3 (configuration not stated) | > 100 µM | > 100 µM | > 100 µM | > 100 µM | > 100 µM | – | > 100 µM | > 100 µM | – | > 100 µM | > 100 µM | > 100 µM | > 100 µM | 80.6 µM | 34.6 µM | 98.3 µM
COc1cc(C2c3cc4c(cc3OC(NNC(N)=S)C2C)OCO4)cc(OC)c1OC (configuration not stated) | > 100 µM | > 100 µM | > 100 µM | > 100 µM | > 100 µM | > 100 µM | > 100 µM | 60.1 µM | > 100 µM | > 92.7 µM | 1.24 µM | > 100 µM | 1.42 µM | > 100 µM | – | 34.7 µM
O=c1[nH]c2nc3ccccc3c(=O)n2/c1=C/c1ccccc1 | 47.6 µM | > 100 µM | > 100 µM | 99.4 µM | – | – | > 100 µM | > 100 µM | > 100 µM | > 100 µM | > 100 µM | > 100 µM | > 100 µM | 96.6 µM | > 100 µM | –
Cc1cccc(N=Nc2c(C)nn(C(=O)CC(=O)Nc3ccc(Cl)cc3)c2C)c1 | > 100 µM | > 100 µM | > 100 µM | 95.9 µM | > 100 µM | – | > 100 µM | > 100 µM | 96.9 µM | > 100 µM | > 100 µM | > 100 µM | 41.8 µM | > 100 µM | > 100 µM | > 100 µM
